{"source": "ChEMBL document CHEMBL2150959", "about": "“Histamine H3 receptor as a drug discovery target” (J Med Chem, 2011)", "key": {"Histamine H3 receptor [1]": {"target": "T1, Histamine H3 receptor (Homo sapiens, UniProt Q9Y5N1)", "T1 sequence (Q9Y5N1 whole entry)": "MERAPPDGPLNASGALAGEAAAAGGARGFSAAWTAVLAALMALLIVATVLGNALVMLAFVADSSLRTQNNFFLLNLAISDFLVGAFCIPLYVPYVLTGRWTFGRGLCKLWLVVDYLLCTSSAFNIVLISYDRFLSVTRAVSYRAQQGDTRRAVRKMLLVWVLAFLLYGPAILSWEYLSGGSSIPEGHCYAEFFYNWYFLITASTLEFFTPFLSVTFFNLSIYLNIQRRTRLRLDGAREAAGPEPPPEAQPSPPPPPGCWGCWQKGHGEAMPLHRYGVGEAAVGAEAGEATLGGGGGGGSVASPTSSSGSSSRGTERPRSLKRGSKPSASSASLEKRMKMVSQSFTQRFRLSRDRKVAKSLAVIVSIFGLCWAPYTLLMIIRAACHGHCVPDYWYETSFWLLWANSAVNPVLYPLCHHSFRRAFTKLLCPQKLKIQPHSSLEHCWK", "experiment": "Binding affinity to human histamine H3 receptor"}, "[2]": {"experiment": "Oral bioavailability in rat", "format": "ADME, organism-based", "conditions": "in vivo"}, "[3]": {"experiment": "Half life in rat", "format": "ADME, organism-based", "conditions": "in vivo"}, "[4]": {"experiment": "Oral bioavailability in dog", "format": "ADME, organism-based, Canis lupus familiaris", "conditions": "in vivo"}, "[5]": {"experiment": "Half life in dog", "format": "ADME, organism-based, Canis lupus familiaris", "conditions": "in vivo"}, "Histamine H1 receptor": {"target": "Histamine H1 receptor (Homo sapiens, UniProt P35367)", "sequence (P35367 whole entry)": "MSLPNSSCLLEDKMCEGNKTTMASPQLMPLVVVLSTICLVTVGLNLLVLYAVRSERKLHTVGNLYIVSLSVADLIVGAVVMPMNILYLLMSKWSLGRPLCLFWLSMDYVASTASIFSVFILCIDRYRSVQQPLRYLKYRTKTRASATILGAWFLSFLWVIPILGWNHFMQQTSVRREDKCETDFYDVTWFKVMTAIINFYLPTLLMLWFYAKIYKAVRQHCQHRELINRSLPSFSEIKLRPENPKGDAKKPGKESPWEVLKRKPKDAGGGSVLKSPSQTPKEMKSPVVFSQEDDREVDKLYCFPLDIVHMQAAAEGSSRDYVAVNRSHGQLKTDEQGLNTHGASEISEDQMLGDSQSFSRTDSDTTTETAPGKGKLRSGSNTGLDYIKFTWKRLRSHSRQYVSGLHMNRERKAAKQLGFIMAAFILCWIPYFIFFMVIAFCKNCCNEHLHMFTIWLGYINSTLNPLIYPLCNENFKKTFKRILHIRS"}, "Cavia porcellus [6]": {"tested_on": "Cavia porcellus", "experiment": "Antiinflammatory activity in iv dosed wheal and flare guinea pig model", "format": "functional", "conditions": "read-out: ID50 (the source's name)"}, "Cavia porcellus [7]": {"tested_on": "Cavia porcellus", "experiment": "Antiinflammatory activity in po dosed wheal and flare guinea pig model", "format": "functional", "conditions": "read-out: ID50 (the source's name)"}, "Histamine H3 receptor [8]": {"target": "T1, Histamine H3 receptor", "experiment": "Inverse agonist activity at human histamine H3 receptor by GTPgammaS binding assay", "format": "functional"}, "Histamine H3 receptor [9]": {"target": "Histamine H3 receptor (Rattus norvegicus, UniProt Q9QYN8)", "sequence (Q9QYN8 whole entry)": "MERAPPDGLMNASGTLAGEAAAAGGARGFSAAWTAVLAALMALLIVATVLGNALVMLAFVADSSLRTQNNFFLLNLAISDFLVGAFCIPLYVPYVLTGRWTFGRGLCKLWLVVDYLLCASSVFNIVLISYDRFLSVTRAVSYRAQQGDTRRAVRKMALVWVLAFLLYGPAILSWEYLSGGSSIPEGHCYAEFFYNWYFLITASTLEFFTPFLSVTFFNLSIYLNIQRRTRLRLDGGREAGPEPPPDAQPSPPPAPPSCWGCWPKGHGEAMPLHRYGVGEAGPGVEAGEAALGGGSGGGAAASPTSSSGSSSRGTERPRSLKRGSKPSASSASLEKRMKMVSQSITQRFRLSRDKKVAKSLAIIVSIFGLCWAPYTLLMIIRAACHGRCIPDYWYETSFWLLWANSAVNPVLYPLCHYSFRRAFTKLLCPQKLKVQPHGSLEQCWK", "experiment": "Binding affinity to rat cortical histamine H3 receptor"}, "[10]": {"experiment": "Oral bioavailability in monkey", "format": "ADME, organism-based, Macaca mulatta", "conditions": "rhesus monkey, in vivo"}, "[11]": {"experiment": "Half life in monkey", "format": "ADME, organism-based, Macaca mulatta", "conditions": "rhesus monkey, in vivo"}, "[12]": {"experiment": "Oral bioavailability in rat at 1 mg/kg", "format": "ADME, organism-based", "conditions": "in vivo"}, "[13]": {"experiment": "Half life in rat at 1 mg/kg, po", "format": "ADME, organism-based", "set-up": "dose 1 mg/kg, route oral", "conditions": "in vivo"}, "Rattus norvegicus [14]": {"tested_on": "Rattus norvegicus", "experiment": "Increase in paraventricular histamine levels in normal rat at 15 mg/kg, po", "format": "functional"}, "Rhesus monkey": {"tested_on": "Rhesus monkey", "experiment": "Reduction of food intake in rhesus monkey at 1 mg/kg", "format": "functional, Macaca mulatta", "set-up": "scale not given: the % may be the effect or the level left"}, "[15]": {"experiment": "Half life in human plasma", "format": "ADME, cell-free"}, "[16]": {"experiment": "Oral bioavailability in dog at 1 mg/kg", "format": "ADME, organism-based, Canis lupus familiaris", "conditions": "in vivo"}, "[17]": {"experiment": "Oral bioavailability in monkey at 1 mg/kg", "format": "ADME, organism-based, Macaca mulatta", "conditions": "rhesus monkey, in vivo"}, "[18]": {"experiment": "Volume of distribution in rat", "format": "ADME, organism-based", "conditions": "in vivo"}, "Rattus norvegicus [19]": {"tested_on": "Rattus norvegicus", "experiment": "Increase in histamine release in sc dosed rat prefrontal cortex", "format": "functional", "conditions": "read-out: MED"}, "Rattus norvegicus [20]": {"tested_on": "Rattus norvegicus", "experiment": "Increase in acetyl choline release in sc dosed rat prefrontal cortex", "format": "functional", "conditions": "read-out: MED"}, "Rattus norvegicus [21]": {"tested_on": "Rattus norvegicus", "experiment": "Efficacy in sc dosed novel object recognition 24 hrs delay rat model", "format": "functional", "conditions": "read-out: MED"}}}
{"smiles": "CS(=O)(=O)c1ccc(C(=O)N2CCN(c3ccc(OC4CCN(C5CCC5)CC4)cc3)CC2)cc1", "values": [{"measurement": "Ki", "setting": "Histamine H3 receptor [1]; read-out: pKi (converted)", "value": 0.316, "unit": "nM"}, {"measurement": "bioavailability", "setting": "[2]", "value": "> 50", "unit": "%"}, {"measurement": "half-life", "setting": "[3]", "value": 2, "unit": "h"}, {"measurement": "bioavailability", "setting": "[4]", "value": 90, "unit": "%"}, {"measurement": "half-life", "setting": "[5]", "value": 5, "unit": "h"}, {"measurement": "Ki", "setting": "Histamine H1 receptor", "value": 2510, "unit": "nM"}]}
{"smiles": "CC1(C)CCCN(CCCOc2ccc(C3CCN(C(=O)c4ccc(CCC(=O)O)c5ccccc45)CC3)cc2)C1", "values": [{"measurement": "Ki", "setting": "Histamine H3 receptor [1]; read-out: pKi (converted)", "value": 50.1, "unit": "nM"}, {"measurement": "Ki", "setting": "Histamine H1 receptor", "value": 12.6, "unit": "nM"}, {"measurement": "ED50", "setting": "Cavia porcellus [6]", "value": 0.6, "unit": "mg/kg"}, {"measurement": "ED50", "setting": "Cavia porcellus [7]", "value": 2.8, "unit": "mg/kg"}]}
{"smiles": "CC(C)N1CCCN(C(=O)C2CCN(c3ccc(C(F)(F)F)nc3)CC2)CC1", "values": [{"measurement": "Ki", "setting": "Histamine H3 receptor [1]; read-out: pKi (converted)", "value": 0.316, "unit": "nM"}, {"measurement": "IC50", "setting": "Histamine H3 receptor [8]", "value": 2.51, "unit": "nM"}]}
{"smiles": "N#Cc1ccc(-c2ccc(OCCCN3CCCN(C(=O)[C@@H](Cc4cscn4)NC(=O)c4ccco4)CC3)cc2)cc1", "values": [{"measurement": "Ki", "setting": "Histamine H3 receptor [1]; read-out: pKi (converted)", "value": 1.58, "unit": "nM"}]}
{"smiles": "C[C@@H]1CCCN1CCc1cc2cc(-c3cn[nH]c3)ccc2o1", "values": [{"measurement": "Ki", "setting": "Histamine H3 receptor [9]; read-out: pKi (converted)", "value": 3.16, "unit": "nM"}, {"measurement": "Ki", "setting": "Histamine H3 receptor [1]; read-out: pKi (converted)", "value": 0.501, "unit": "nM"}, {"measurement": "bioavailability", "setting": "[2]", "value": 26, "unit": "%"}, {"measurement": "half-life", "setting": "[3]", "value": 2.9, "unit": "h"}, {"measurement": "bioavailability", "setting": "[4]", "value": 30, "unit": "%"}, {"measurement": "half-life", "setting": "[5]", "value": 1.7, "unit": "h"}, {"measurement": "bioavailability", "setting": "[10]", "value": 8, "unit": "%"}, {"measurement": "half-life", "setting": "[11]", "value": 1.8, "unit": "h"}]}
{"smiles": "C[C@@H]1CCCN1CCc1ccc2cc(-n3ncccc3=O)ccc2c1", "values": [{"measurement": "Ki", "setting": "Histamine H3 receptor [1]; read-out: Ki", "value": 0.8, "unit": "nM"}, {"measurement": "bioavailability", "setting": "[12]", "value": 84, "unit": "%"}, {"measurement": "half-life", "setting": "[13]", "value": 4.9, "unit": "h"}]}
{"smiles": "O=C(/C=C/c1ccc(C(F)(F)F)cc1)N1CCC[C@H]1CN1CCCC1", "values": [{"measurement": "Activity", "setting": "Rattus norvegicus [14]", "value": 339, "unit": "%"}, {"measurement": "Activity", "setting": "Rhesus monkey", "value": 75, "unit": "%"}]}
{"smiles": "C[C@@H]1CCCN1CCc1ccc2cc(-c3ccc(C#N)cc3)ccc2c1", "values": [{"measurement": "half-life", "setting": "[3]", "value": 5.5, "unit": "h"}]}
{"smiles": "C[C@@H](N)C(=O)N1CCN(CCCOc2ccc(C(=O)C3CC3)cc2)CC1", "values": [{"measurement": "Ki", "setting": "Histamine H3 receptor [1]; read-out: pKi (converted)", "value": 794, "unit": "nM"}]}
{"smiles": "C[C@H](Cc1c[nH]cn1)/N=C(\\c1ccccc1)c1ccccc1O", "values": [{"measurement": "half-life", "setting": "[15]", "value": "> 24", "unit": "h"}]}
{"smiles": "C[C@@H]1CCCN1CCc1cc2cc(-c3ccc(C#N)cc3)ccc2o1", "values": [{"measurement": "bioavailability", "setting": "[12]", "value": 52, "unit": "%"}, {"measurement": "bioavailability", "setting": "[16]", "value": 74, "unit": "%"}, {"measurement": "bioavailability", "setting": "[17]", "value": 89, "unit": "%"}]}
{"smiles": "C[C@@H](NC(=O)c1ccco1)C(=O)N1CCN(CCCOc2ccc(C(=O)C3CC3)cc2)CC1", "values": [{"measurement": "Ki", "setting": "Histamine H3 receptor [9]; read-out: pKi (converted)", "value": 0.631, "unit": "nM"}]}
{"smiles": "Cc1cc2ncc(-c3ccc4cc(CCN5CCC[C@H]5C)ccc4n3)c(C)n2n1", "values": [{"measurement": "bioavailability", "setting": "[2]", "value": 90, "unit": "%"}, {"measurement": "half-life", "setting": "[3]", "value": 5.3, "unit": "h"}]}
{"smiles": "C[C@H]1CC[C@H](C)N1CCCOc1ccc(-c2ccc(C(=O)N3CCOCC3)cc2)cc1", "note": "(single isomer, unassigned) [A-349,821]", "values": [{"measurement": "Ki", "setting": "Histamine H3 receptor [1]; read-out: pKi (converted)", "value": 1.58, "unit": "nM"}]}
{"smiles": "CC(C)(C)CCC#C[C@@H]1C[C@H]1c1c[nH]cn1", "note": "[CIPRALISANT]", "values": [{"measurement": "Ki", "setting": "Histamine H3 receptor [9]; read-out: Ki", "value": 0.18, "unit": "nM"}]}
{"smiles": "CNC(=O)c1ccc(Oc2ccc3c(c2)CCN(C2CCC2)CC3)nc1", "note": "[GSK189254]", "values": [{"measurement": "Ki", "setting": "Histamine H3 receptor [9]; read-out: pKi (converted)", "value": 0.631, "unit": "nM"}]}
{"smiles": "O=c1c2ccccc2c(Cc2ccc(Cl)cc2)nn1C[C@H]1CCCN1CCCCc1ccc(OCCCN2CCCCCC2)cc1", "note": "[GSK-1004723]", "values": [{"measurement": "Ki", "setting": "Histamine H1 receptor", "value": 15.8, "unit": "nM"}]}
{"smiles": "c1cc(OCCCN2CCCCC2)ccc1CN1CCCCC1", "note": "[JNJ-5207852]", "values": [{"measurement": "half-life", "setting": "[3]", "value": 15, "unit": "h"}, {"measurement": "Vd", "setting": "[18]", "value": "> 100", "unit": "L/kg"}]}
{"smiles": "CCNC(=O)[C@H]1C[C@@](F)(c2ccc(CN3CCCC3)c(F)c2)C1", "note": "[PF-03654746]", "values": [{"measurement": "minimal effective dose", "setting": "Rattus norvegicus [19]", "value": 1, "unit": "mg/kg"}, {"measurement": "minimal effective dose", "setting": "Rattus norvegicus [20]", "value": 3.2, "unit": "mg/kg"}, {"measurement": "minimal effective dose", "setting": "Rattus norvegicus [21]", "value": 0.32, "unit": "mg/kg"}]}
